From US20240067662A1, “KRAS INHIBITORS” (Bristol-Myers Squibb Company, priority 2022, published 2024)

target: GMPPNP-loaded KRAS G12C (Homo sapiens, UniProt P01116, G12C); assay: KRAS G12C RAF Disruption Assay (HTRF); type: biochemical; details: recombinant GMPPNP-loaded KRAS G12C (5 nM), 20 min with compound; GST-RAF1 RBD (9 nM); HTRF signal; read-out: KRASG12C RAF Disruption Assay (IC50)
How it was run: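 The read-out is an HTRF 520/495 emission ratio, with IC50 taken from dose-response curves. Compound was first incubated for 20 min at room temperature with active-state KRAS G12C (GMPPNP, 5 nM) in Tris pH 7.5/NaCl/MgCl2/DTT/BSA. RAF1 RBD-GST (9 nM, 20 min) and SA-Tb (0.25 nM, 3 h) were added in turn.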

Chain of GMPPNP-loaded KRAS G12C (P01116 1-188 isoform P01116-2 G12C): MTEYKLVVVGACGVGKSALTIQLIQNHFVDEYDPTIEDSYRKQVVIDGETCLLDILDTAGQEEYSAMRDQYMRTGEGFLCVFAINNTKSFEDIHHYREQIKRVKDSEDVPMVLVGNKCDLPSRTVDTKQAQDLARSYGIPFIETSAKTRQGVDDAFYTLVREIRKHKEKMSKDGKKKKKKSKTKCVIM

| IC50 [nM] | SMILES |
| --- | --- |
| 5100 | Cn1ncc2cccc(-c3ncc4c(N5CCN(C(=O)/C(F)=C/c6nccs6)CC5)nc(OC[C@@]56CCCN5C[C@H](F)C6)nc4c3F)c21 [Example 39, (Z)-2-fluoro-1-(4-(8-fluoro-2-(((2R, 7aS)-2-fluorotetrahydro-1H-pyrrolizin-7a(5H)-yl)methoxy)-7-(I-methyl-1H-indazol-7-yl)pyrido[4,3-d]pyrimidin-4-yl)piperazin-1-yl)-3-(thiazol-2-yl)prop-2-en-1-one] |
| 880 | N#CC[C@H]1CN(c2nc(OC[C@@]34CCCN3C[C@H](F)C4)nc3c(F)c(-c4cc(F)ccc4F)ncc23)CCN1C(=O)/C(F)=C/c1ccccn1 [Example 40, 2-((S)-4-(7-(2,5-difluorophenyl)-8-fluoro-2-(((2R, 7aS)-2-fluorotetrahydro-1H-pyrrolizin-7a(5H)-yl)methoxy)pyrido[4,3-d]pyrimidin-4-yl)-1-((Z)-2-fluoro-3-(pyridin-2-yl)acryloyl)piperazin-2-yl)acetonitrile] |
| 760 | N#CC[C@H]1CN(c2nc(OC[C@@]34CCCN3C[C@H](F)C4)nc3c(F)c(-c4cc(F)ccc4F)ncc23)CCN1C(=O)/C(F)=C/c1nccs1 [Example 41, 2-((S)-4-(7-(2,5-difluorophenyl)-8-fluoro-2-(((2R, 7aS)-2-fluorotetrahydro-1H-pyrrolizin-7a(5H)-yl)methoxy)pyrido[4,3-d]pyrimidin-4-yl)-1-((Z)-2-fluoro-3-(thiazol-2-yl)acryloyl)piperazin-2-yl)acetonitrile] |
| 760 | N#CC[C@H]1CN(c2nc(OC[C@@]34CCCN3C[C@H](F)C4)nc3c(F)c(-c4cc(F)ccc4C(F)F)ncc23)CCN1C(=O)/C(F)=C/c1ccccn1 [Example 42, 2-((S)-4-(7-(2-(difluoromethyl)-5-fluorophenyl)-8-fluoro-2-(((2R, 7aS)-2-fluorotetrahydro-1H-pyrrolizin-7a(5H)-yl)methoxy)pyrido[4,3-d]pyrimidin-4-yl)-1-((Z)-2-fluoro-3-(pyridin-2-yl)acryloyl)piperazin-2-yl)acetonitrile] |
| 1100 | N#CC[C@H]1CN(c2nc(OC[C@@]34CCCN3C[C@H](F)C4)nc3c(F)c(-c4cc(F)ccc4C(F)F)ncc23)CCN1C(=O)/C(F)=C/c1nccs1 [Example 43, 2-((S)-4-(7-(2-(difluoromethyl)-5-fluorophenyl)-8-fluoro-2-(((2R, 7aS)-2-fluorotetrahydro-1H-pyrrolizin-7a(5H)-yl)methoxy)pyrido[4,3-d]pyrimidin-4-yl)-1-((Z)-2-fluoro-3-(thiazol-2-yl)acryloyl)piperazin-2-yl)acetonitrile] |
| 360 | N#CC[C@H]1CN(c2nc(OC[C@@]34CCCN3C[C@H](F)C4)nc3c(F)c(-c4cc(F)ccc4C(F)(F)F)ncc23)CCN1C(=O)/C(F)=C/c1ccccn1 [Example 44, 2-((S)-1-((Z)-2-fluoro-3-(pyridin-2-yl)acryloyl)-4-(8-fluoro-7-(5-fluoro-2-(trifluoromethyl)phenyl)-2-(((2R, 7aS)-2-fluorotetrahydro-1H-pyrrolizin-7a(5H)-yl)methoxy)pyrido[4,3-d]pyrimidin-4-yl)piperazin-2-yl)acetonitrile] |
| 460 | N#CC[C@H]1CN(c2nc(OC[C@@]34CCCN3C[C@H](F)C4)nc3c(F)c(-c4cc(F)ccc4C(F)(F)F)ncc23)CCN1C(=O)/C(F)=C/c1nccs1 [Example 45, 2-((S)-1-((Z)-2-fluoro-3-(thiazol-2-yl)acryloyl)-4-(8-fluoro-7-(5-fluoro-2-(trifluoromethyl)phenyl)-2-(((2R, 7aS)-2-fluorotetrahydro-1H-pyrrolizin-7a(5H)-yl)methoxy)pyrido[4,3-d]pyrimidin-4-yl)piperazin-2-yl)acetonitrile] |
